From the supplement of paper PMC10307832

Assays:
Test in all cases: relative viability (nuclei count vs DMSO), 5 days (fraction); higher = more cells survive
[1] = compound: C1=CC=C(C(=C1)C2=CC=C(C=C2)C3=CSC4=C3C(=C(C(=O)N4)C#N)O)O
Procedure, shortened: (§1)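 Viability was read as treated-well nuclei divided by vehicle-well nuclei, using the median across plates. Lung cancer cell lines in 1536-well plates were kept overnight at 37 °C, pinned with five √10-spaced library-drug doses, and after 5 days were Hoechst-stained, imaged at 4× and counted in MetaXpress. Plates passed only with control CV below 25% and at least one doubling.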

[2] = compound: O=C(CCCCCCNC(=O)c1cnc(N(c2ccccc2)c2ccccc2)nc1)NO [Ricolinostat]
Procedure, shortened: as §1

[3] = compound: CC1=CN2C(=O)C=C(N=C2C(=C1)C(C)NC3=CC=CC=C3)N4CCOCC4 [TGX 221]
Procedure, shortened: as §1

[4] = compound: C1=CC=C(C(=C1)C2=CC=C(C=C2)C3=CSC4=C3C(=C(C(=O)N4)C#N)O)O + COc1cc2c(Oc3ccc(NC(=O)C4(C(=O)Nc5ccc(F)cc5)CC4)cc3F)ccnc2cc1OCCCN1CCOCC1 [Foretinib] (partner 0.25 µM)
Procedure, shortened: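 Values are medians from duplicate plates. Each reflects relative viability, defined as the nuclei count of treated wells over that of vehicle wells. Lung cancer cell lines in 1536-well plates were pin-tool dosed one day after seeding with one drug alone or with a fixed anchor-drug dose plus five library-drug doses (not always all listed) in √10 steps, then fixed, stained and imaged at 4× after 5 days.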

Cell Line	relative viability ([1]; 0.08 µM)	relative viability ([1]; 0.253 µM)	relative viability ([1]; 0.8 µM)	relative viability ([1]; 2.53 µM)	relative viability ([1]; 8 µM)	relative viability ([2]; 0.08 µM)	relative viability ([2]; 0.253 µM)	relative viability ([2]; 0.8 µM)	relative viability ([2]; 2.53 µM)	relative viability ([3]; 0.08 µM)	relative viability ([3]; 0.253 µM)	relative viability ([3]; 0.8 µM)	relative viability ([3]; 2.53 µM)	relative viability ([3]; 8 µM)	relative viability ([4]; first compound 0.08 µM)	relative viability ([4]; first compound 0.253 µM)	relative viability ([4]; first compound 0.8 µM)	relative viability ([4]; first compound 2.53 µM)	relative viability ([4]; first compound 8 µM)
NCI-H2342	0.971	1.15	0.926	0.953	0.795	0.768	0.912	0.916	1.05	0.912	0.997	0.947	1.01	0.945	1.01	1.1	1.1	1.03	0.856
SK-LU-1	1.11	0.96	0.994	1.16	0.81	0.939	0.981	0.995	0.72	0.954	0.964	0.963	0.932	0.876	0.886	0.733	0.871	0.947	0.734
NCI-H2023	0.996	1.04	1.02	1.01	0.722	0.752	1.01	0.931	0.821	0.901	0.89	0.927	0.889	0.845	0.838	0.939	0.763	0.903	0.76
NCI-H1299	1.09	1.07	1.01	1.06	0.897	0.997	0.983	0.982	0.954	0.98	1.01	1.01	1.06	0.993	1.1	1.07	1.09	1.11	1.17
LOU-NH91	0.941	1.06	0.962	0.896	0.894		1.03	0.94	0.98	0.914	1	0.948	0.948	0.901	0.942	0.96	0.92	0.914	0.868
LCLC-103H	1.02	0.984	1.05	0.984	1	0.778	0.957	1.04	1.08	0.903	0.983	0.878	0.928	0.959	0.78	0.735	0.93	0.698	0.587
SW 1573	1.06	1.17	1.01	1.03	0.738	0.936	1.07	0.896	1.02	0.895	0.876	0.961	0.906	0.902	0.836	0.864	0.884	0.916	0.837
NCI-H1755	1.06	1.08	0.991	1.05	0.923	0.885	0.961	0.978	1.03	0.954	0.971	0.972	0.915	0.828	0.966	0.924	0.89	0.929	0.95
COR-L 105	0.851	0.96	0.96	0.708	0.903	0.775	0.92	0.837	1.09	1.01	0.875	0.859	0.944	0.823	1.24	1.33	0.997	0.943	0.994
NCI-H1793	0.786	1.17	0.9	0.834	0.945		0.924	0.905	0.898	0.858	0.628	0.748	0.574	0.668	0.623	0.673	0.691	0.595	0.555
EMC-BAC-2	0.957	0.897	0.876	0.927	0.893	0.887	0.93	0.83	0.484	0.958	0.926	0.908	0.977	0.913	1.07	1.1	0.989	0.963	0.896
H3255	0.995	1.09	0.882	1.01	0.858	0.809	0.911	0.838	0.783	0.946	0.917	0.93	0.872	1.01	0.715	0.803	0.738	0.844	1.07
PC-14	0.844	1.24	0.952	1.09	0.806	0.932	0.927	0.902	0.798	0.913	0.953	0.983	1.02	0.907	0.887	1.24	0.911	1.03	0.826
NCI-H661	1.11	1.03	1.03	0.97	0.834	0.836	0.981	1.02	0.803	1.02	1.02	0.971	0.999	0.846	1.3	1.06	0.898	1.02	0.99
HARA	0.768	1.98	0.999	0.751	0.856	0.878	1	0.866	0.567	0.997	0.947	0.964	0.942	1.05	0.721	1.08	0.938	0.882	0.706
COR-L23	1.13	1.07	1.1	1.13	0.704	0.942	0.895	0.844	0.707	1.01	1	0.97	1.02	0.989	0.966	1.08	1.13	1.07	0.909
SK-MES-1	1.01	1.06	1.01	1.04	0.819	0.824	0.979	0.983	0.979	1.01	0.958	0.941	0.75	0.67	0.885	1.02	0.905	0.852	0.837
